Tests used:
[1] = system: 4T1 tumor cells; experiment: Syngeneic breast cancer model; format: in vivo, mouse; conditions: BALB/c mice
Method: Figure 6 A41 decreases metastasis of TNBC cells in vivo (A) Representative images of luciferase bioluminescence intensities (BLI) in whole body, legs, and ovaries/uterus 4 weeks after resection of MD1-MB-468 Luc tumor in NMRI nude mice not treated (control) and treated with A41 (25 mg/kg/day, intraperitoneally for 4 weeks). (B) Metastasis frequency quantification based on ex vivo BLI measurements in indicated organs from control (black bars) and A41-treated mice 4 weeks after tumor resection (white bars) (N = 10–15 mice; ∗p < 0.05 vs. controls). (C) BLI quantification in legs and ovaries/uterus from control (black squares) and A41-treated (white squares) NMRI nude mice 4 weeks after tumor resection (N = 10–15 mice; ∗p < 0.05 vs. controls). (D) Cumulative proportion of immunocompetent control (red) and A41-treated mice (blue) displaying regrowth of the primary tumor after its resection. (E) Metastasis frequency quantified from ex vivo BLI measurements in leg bones, lungs, kidneys, and ovaries/uterus from immunocompetent control (black bar) and A41-treated (white bar) mice (N = 10 mice; ∗p < 0.05 vs. control). (F) Survival curve of immunocompetent control (red) and A41-treated mice (blue) after primary tumor resection (day 0).
To circumvent this limitation and evaluate if the immune system could affect the anti-metastatic property of A41, we evaluated its effect in a syngeneic model. We injected murine 4T1 tumor cells into the mammary fat pad of immunocompetent BALB/c mice.

[2] = molecular target: Glucocorticoid (Homo sapiens, UniProt P04150); experiment: Safety screen; format: binding
Method: (§1) Blood cell counts, kinase profiler, safety screen, bacterial cytotoxicity, Ames, micronucleus assays were performed by the company Eurofins (France).

[3] = molecular target: Opiate κ(OP2, KOP) (Homo sapiens, UniProt P41145); experiment: Safety screen; format: binding
Method: (§2) Blood cell counts, kinase profiler, safety screen, bacterial cytotoxicity, Ames, micronucleus assays were performed by the company Eurofins (France). The kinase profiler was performed by the company Eurofins (Discovery, Panlab and Cerep).

[4] = molecular target: Serotonin (5-Hydroxytryptamine) 5-HT1B (Homo sapiens, UniProt P28222); experiment: Safety screen; format: binding
Method: as §2

[5] = molecular target: Transporter, Dopamine (DAT) (Homo sapiens, UniProt Q01959); experiment: Safety screen; format: binding
Method: as §1

[6] = system: Transporter, GABA; experiment: Safety screen; format: binding, rat
Method: as §1

[7] = molecular target: A-Raf(h) (Homo sapiens, UniProt P10398); experiment: Kinase Profiler; format: biochemical
Method: as §2

[8] = molecular target: BrSK1(h) (Homo sapiens, UniProt Q8TDC3); experiment: Kinase Profiler; format: biochemical
Method: as §2

[9] = molecular target: CaMKI(h) (Homo sapiens, UniProt Q14012); experiment: Kinase Profiler; format: biochemical
Method: as §2

[10] = molecular target: CDK9/cyclin T1(h) (Homo sapiens, UniProt P50750); experiment: Kinase Profiler; format: biochemical
Method: as §2

[11] = molecular target: CDK12/cyclinK(h) (Homo sapiens, UniProt Q9NYV4); experiment: Kinase Profiler; format: biochemical
Method: as §2

[12] = molecular target: DAPK1(h) (Homo sapiens, UniProt P53355); experiment: Kinase Profiler; format: biochemical
Method: (§3) The kinase profiler was performed by the company Eurofins (Discovery, Panlab and Cerep).

[13] = molecular target: DMPK(h) (Homo sapiens, UniProt Q09013); experiment: Kinase Profiler; format: biochemical
Method: as §2

[14] = molecular target: EGFR(T790M,L858R)(h) (Homo sapiens, UniProt P00533, L858R/T790M); experiment: Kinase Profiler; format: biochemical
Method: as §3

[15] = molecular target: Fms(Y969C)(h) (Homo sapiens, UniProt P07333, Y969C); experiment: Kinase Profiler; format: biochemical
Method: as §3

[16] = molecular target: GSK3α(h) (Homo sapiens, UniProt P49840); experiment: Kinase Profiler; format: biochemical
Method: as §2

[17] = molecular target: Hck(h) (Homo sapiens, UniProt P08631); experiment: Kinase Profiler; format: biochemical
Method: as §3

[18] = molecular target: MARK1(h) (Homo sapiens, UniProt Q9P0L2); experiment: Kinase Profiler; format: biochemical
Method: as §3

[19] = molecular target: MINK(h) (Homo sapiens, UniProt Q8N4C8); experiment: Kinase Profiler; format: biochemical
Method: as §3

[20] = molecular target: MOK(h) (Homo sapiens, UniProt Q9UQ07); experiment: Kinase Profiler; format: biochemical
Method: as §3

[21] = molecular target: PDHK2(h) (Homo sapiens, UniProt Q15119); experiment: Kinase Profiler; format: biochemical
Method: as §2

[22] = molecular target: PKCα(h) (Homo sapiens, UniProt P17252); experiment: Kinase Profiler; format: biochemical
Method: as §3

[23] = molecular target: PRKG2(h) (Homo sapiens, UniProt Q13237); experiment: Kinase Profiler; format: biochemical
Method: as §2

[24] = molecular target: Rsk1(h) (Homo sapiens, UniProt Q15418); experiment: Kinase Profiler; format: biochemical
Method: as §3

[25] = molecular target: SAPK2a(T106M)(h) (Homo sapiens, UniProt Q16539, T106M); experiment: Kinase Profiler; format: biochemical
Method: as §3

[26] = molecular target: STK32B(h) (Homo sapiens, UniProt Q9NY57); experiment: Kinase Profiler; format: biochemical
Method: as §3

[27] = molecular target: STK33(h) (Homo sapiens, UniProt Q9BYT3); experiment: Kinase Profiler; format: biochemical
Method: as §3

Chain of SAPK2a(T106M)(h) (Q16539 whole entry T106M): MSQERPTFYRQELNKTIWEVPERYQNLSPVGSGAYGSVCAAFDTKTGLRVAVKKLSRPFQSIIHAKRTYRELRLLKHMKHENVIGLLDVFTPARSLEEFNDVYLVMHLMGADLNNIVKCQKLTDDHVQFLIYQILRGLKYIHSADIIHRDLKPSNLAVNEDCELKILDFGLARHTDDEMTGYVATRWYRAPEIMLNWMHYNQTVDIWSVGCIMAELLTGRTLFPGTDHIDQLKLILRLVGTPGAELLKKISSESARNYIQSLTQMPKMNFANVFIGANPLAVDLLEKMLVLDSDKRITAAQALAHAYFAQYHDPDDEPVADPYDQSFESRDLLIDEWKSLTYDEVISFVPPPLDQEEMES
Chain of Rsk1(h) (Q15418 whole entry): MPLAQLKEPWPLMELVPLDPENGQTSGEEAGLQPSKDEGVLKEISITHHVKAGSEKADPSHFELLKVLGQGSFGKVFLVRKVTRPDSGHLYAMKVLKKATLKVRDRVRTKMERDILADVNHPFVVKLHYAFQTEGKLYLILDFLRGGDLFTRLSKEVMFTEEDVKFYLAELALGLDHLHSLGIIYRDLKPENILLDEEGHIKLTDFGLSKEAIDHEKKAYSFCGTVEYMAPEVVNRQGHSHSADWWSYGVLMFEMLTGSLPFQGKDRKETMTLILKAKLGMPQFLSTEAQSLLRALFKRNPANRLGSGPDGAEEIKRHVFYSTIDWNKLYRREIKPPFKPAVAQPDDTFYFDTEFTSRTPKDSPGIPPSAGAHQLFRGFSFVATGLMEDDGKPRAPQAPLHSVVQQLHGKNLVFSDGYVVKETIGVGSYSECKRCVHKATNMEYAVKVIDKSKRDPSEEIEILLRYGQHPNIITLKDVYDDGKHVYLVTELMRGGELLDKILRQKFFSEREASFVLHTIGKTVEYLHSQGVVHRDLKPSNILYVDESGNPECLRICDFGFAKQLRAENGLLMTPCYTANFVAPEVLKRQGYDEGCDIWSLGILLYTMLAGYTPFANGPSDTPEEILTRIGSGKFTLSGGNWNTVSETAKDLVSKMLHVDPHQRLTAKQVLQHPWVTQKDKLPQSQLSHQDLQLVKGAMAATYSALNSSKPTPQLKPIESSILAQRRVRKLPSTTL
Chain of A-Raf(h) (P10398 whole entry): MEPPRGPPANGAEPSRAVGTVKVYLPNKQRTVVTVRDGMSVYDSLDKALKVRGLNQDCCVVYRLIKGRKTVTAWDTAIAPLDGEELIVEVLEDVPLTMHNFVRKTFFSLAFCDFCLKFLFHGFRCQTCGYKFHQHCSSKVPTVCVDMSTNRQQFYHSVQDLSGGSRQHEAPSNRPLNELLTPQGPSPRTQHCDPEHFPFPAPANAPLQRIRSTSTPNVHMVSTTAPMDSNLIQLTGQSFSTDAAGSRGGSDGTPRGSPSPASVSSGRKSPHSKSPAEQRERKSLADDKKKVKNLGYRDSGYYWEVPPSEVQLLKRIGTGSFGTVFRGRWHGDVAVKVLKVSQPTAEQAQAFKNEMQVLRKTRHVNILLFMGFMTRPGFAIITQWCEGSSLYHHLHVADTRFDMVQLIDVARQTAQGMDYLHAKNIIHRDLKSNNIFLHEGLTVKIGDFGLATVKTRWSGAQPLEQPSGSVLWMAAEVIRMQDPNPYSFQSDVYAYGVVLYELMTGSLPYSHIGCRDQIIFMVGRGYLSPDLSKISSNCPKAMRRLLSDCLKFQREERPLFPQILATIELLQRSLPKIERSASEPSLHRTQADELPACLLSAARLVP
Chain of MOK(h) (Q9UQ07 whole entry): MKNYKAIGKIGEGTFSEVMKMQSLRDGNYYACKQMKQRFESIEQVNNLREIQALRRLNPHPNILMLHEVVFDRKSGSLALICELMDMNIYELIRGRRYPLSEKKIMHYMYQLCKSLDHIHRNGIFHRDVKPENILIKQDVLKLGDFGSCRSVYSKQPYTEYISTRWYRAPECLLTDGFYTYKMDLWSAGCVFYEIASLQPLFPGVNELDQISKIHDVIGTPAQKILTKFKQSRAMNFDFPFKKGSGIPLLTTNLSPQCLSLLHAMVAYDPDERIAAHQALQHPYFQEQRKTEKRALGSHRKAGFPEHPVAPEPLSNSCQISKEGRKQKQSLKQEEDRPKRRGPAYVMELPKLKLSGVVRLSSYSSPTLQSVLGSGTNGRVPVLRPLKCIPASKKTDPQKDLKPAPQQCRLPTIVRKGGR
Chain of CDK12/cyclinK(h) (Q9NYV4 whole entry): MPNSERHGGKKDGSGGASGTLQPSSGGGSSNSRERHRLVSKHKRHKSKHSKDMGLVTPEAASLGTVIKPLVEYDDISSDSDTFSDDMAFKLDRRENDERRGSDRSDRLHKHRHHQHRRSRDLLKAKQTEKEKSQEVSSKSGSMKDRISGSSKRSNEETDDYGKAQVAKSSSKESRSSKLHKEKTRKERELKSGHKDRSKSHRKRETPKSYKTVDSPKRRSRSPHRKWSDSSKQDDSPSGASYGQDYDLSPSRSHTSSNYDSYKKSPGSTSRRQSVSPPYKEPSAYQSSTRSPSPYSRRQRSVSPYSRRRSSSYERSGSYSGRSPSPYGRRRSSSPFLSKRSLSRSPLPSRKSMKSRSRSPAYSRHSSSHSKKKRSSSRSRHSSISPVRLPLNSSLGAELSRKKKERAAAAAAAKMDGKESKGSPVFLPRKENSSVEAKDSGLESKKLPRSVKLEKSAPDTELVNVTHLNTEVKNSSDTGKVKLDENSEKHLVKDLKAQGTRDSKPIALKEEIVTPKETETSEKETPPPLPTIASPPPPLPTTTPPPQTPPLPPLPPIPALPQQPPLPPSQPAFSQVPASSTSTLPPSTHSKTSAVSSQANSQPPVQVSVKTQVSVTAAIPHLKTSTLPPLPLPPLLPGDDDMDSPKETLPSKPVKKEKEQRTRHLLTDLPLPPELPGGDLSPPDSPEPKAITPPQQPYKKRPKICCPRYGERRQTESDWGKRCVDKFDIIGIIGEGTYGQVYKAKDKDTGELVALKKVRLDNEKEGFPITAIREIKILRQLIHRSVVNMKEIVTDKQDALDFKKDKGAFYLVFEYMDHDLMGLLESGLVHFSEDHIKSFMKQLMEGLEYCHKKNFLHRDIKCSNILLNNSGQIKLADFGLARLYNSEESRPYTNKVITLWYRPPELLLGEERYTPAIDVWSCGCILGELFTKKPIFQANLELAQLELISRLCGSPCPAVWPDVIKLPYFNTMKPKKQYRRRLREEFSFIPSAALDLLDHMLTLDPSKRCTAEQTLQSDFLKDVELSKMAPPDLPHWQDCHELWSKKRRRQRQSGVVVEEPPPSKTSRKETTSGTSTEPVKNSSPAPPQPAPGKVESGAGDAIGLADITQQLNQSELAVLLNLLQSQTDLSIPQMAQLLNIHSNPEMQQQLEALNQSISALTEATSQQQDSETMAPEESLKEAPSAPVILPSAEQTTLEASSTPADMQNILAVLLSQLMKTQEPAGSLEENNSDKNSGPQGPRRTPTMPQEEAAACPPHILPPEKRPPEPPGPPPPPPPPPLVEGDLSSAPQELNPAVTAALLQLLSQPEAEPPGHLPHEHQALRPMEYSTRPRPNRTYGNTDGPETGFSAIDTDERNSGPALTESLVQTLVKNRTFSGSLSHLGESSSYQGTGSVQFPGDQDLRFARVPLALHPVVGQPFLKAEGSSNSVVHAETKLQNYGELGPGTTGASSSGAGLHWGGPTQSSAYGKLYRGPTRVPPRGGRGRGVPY
Chain of CDK12/cyclinK(h) (O75909 whole entry partner): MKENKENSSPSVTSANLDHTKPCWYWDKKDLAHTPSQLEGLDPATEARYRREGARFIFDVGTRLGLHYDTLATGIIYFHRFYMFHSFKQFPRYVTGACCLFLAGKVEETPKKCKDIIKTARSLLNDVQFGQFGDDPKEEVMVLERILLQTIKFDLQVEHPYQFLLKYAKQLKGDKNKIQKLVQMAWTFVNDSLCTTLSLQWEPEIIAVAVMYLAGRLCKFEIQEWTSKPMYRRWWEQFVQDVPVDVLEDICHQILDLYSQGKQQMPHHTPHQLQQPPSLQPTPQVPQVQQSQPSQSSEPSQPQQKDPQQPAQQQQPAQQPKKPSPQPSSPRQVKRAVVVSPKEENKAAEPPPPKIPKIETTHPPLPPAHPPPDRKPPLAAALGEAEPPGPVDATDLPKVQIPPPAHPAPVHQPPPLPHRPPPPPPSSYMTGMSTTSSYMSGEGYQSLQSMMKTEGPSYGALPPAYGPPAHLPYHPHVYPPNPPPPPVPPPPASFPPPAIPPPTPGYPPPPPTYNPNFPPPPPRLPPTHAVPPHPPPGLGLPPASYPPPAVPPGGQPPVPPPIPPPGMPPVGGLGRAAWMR
Chain of CaMKI(h) (Q14012 whole entry): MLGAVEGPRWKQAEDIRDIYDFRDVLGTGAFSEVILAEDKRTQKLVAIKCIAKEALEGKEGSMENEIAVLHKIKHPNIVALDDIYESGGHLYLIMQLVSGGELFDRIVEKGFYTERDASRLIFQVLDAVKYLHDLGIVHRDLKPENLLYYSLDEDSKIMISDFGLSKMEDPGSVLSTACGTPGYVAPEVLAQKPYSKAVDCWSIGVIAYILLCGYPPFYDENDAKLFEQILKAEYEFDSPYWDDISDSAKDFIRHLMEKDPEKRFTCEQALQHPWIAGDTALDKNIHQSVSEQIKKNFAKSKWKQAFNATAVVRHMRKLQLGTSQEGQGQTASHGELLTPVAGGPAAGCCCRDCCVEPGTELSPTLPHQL
Chain of Opiate κ(OP2, KOP) (P41145 whole entry): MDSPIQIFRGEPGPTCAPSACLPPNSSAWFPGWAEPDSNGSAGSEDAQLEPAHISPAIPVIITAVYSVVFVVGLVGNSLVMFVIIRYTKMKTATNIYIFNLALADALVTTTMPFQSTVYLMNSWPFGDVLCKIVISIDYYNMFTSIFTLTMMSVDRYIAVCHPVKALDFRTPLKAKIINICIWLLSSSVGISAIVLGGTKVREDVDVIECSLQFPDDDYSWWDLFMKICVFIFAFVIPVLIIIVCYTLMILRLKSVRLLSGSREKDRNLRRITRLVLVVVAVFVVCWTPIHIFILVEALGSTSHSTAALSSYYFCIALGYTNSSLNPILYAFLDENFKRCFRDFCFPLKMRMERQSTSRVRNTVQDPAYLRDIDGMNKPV

## COc1ccc(OC)c(NS(=O)(=O)c2ccc(NC(=O)CCSc3ccc(C)cc3)cc2)c1 [Compound A41]
[1]; 4 weeks post resection
  frequency of primary tumor re-growth (mice with regrowth): 40%
  survival rate: 80%
[1]; after primary tumor resection
  metastasis frequency: significantly reduced metastasis frequency
[2]
  % inh.: 17%
[3]
  % inh.: 10%
[4]
  % inh.: 15%
[5]
  % inh.: 30%
[6]
  % inh.: -4%
[7]
  Activity(%): 85%
[8]
  Activity(%): 86%
[9]
  Activity(%): 114%
[10]
  Activity(%): 92%
[11]
  Activity(%): 100%
[12]
  Activity(%): 117%
[13]
  Activity(%): 98%
[14]
  Activity(%): 104%
[15]
  Activity(%): 107%
[16]
  Activity(%): 90%
[17]
  Activity(%): 111%
[18]
  Activity(%): 110%
[19]
  Activity(%): 114%
[20]
  Activity(%): 90%
[21]
  Activity(%): 96%
[22]
  Activity(%): 105%
[23]
  Activity(%): 123%
[24]
  Activity(%): 122%
[25]
  Activity(%): 98%
[26]
  Activity(%): 105%
[27]
  Activity(%): 98%

— article PMC12281424, “A Rac-specific competitive inhibitor of guanine nucleotide binding reduces metastasis in triple-negative breast cancer” (Cell Reports Medicine, 2025)
